Where two headings read alike, the source gives them in different places.
Key:
IL-6 = IL-6 inhibition in LPS-stimulated human peripheral blood mononuclear cells (HTRF); format: cell-based; settings: Homo sapiens, PBMC; for EC50: IL-6, LPS-stimulated huPBMCs, HTRF; for inhibition at 10 µM: read-out: percent value in parentheses below EC50 >10
Method in brief: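 EC50 from a 4-parameter fit of DMSO-normalized HTRF (665/620 nm) IL-6 signal, duplicates. Compound was added to fresh human PBMCs in 1% FBS RPMI for 2 h (top 10 μM, 3-fold, 0.25% DMSO) before 22 h stimulation with LPS at 50 ng/mL, 37 °C.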

[1] = system: LL29 cells (primary human fibroblasts derived from IPF patients), α-smooth muscle actin; experiment: Inhibition of fibrotic process: αSMA in TGF-β1-treated primary human fibroblasts from IPF patients (LL29 cells); format: cell-based; settings: Homo sapiens, Fibroblast; for EC50: 96 h, % αSMA-positive LL29 cells, TGF-β1 20 ng/mL, 4 days; for inhibition at 10 µM: read-out: percent inhibition at 10 μM
Method in brief: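 Read-out is the percentage of αSMA-positive cells by high-content imaging, excluding SYTOX green-positive dead/apoptotic cells, normalized to TGF-β1-only wells on the same plate. LL29 cells were exposed for 4 days at 37 °C to 20 ng/mL TGF-β1 plus 11-point, 2-fold compound dilutions in 0.1% DMSO.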

DYRK1A kinase = DYRK1A kinase (Homo sapiens (Human), UniProt Q13627); experiment: DYRK1A kinase assay (Ser/Thr 18 peptide Z-lyte, FRET); settings: DYRK1A kinase; method text calls the value IC50
[2] = system: SW480 colon carcinoma cells; experiment: Cell viability assay (CellTiter-Glo) in SW480 cells; format: cell-based, human;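 note: SW480 cells stably carrying an Sp5-luciferase TCF/LEF reporter, luminescent ATP signal as viability measure, DMSO-treated cells as control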
[3] = Homo sapiens, 96 h; cell viability, SW480 cells, four days, CellTiter-Glo
[4] = Homo sapiens, SW480, read-out: percent inhibition at 10 μM
[5] = Homo sapiens, SW480; read-out: percent inhibition at 10 μM

Row | SMILES | EC50 (IL-6) [µM] | EC50 [1] [µM] | EC50 (DYRK1A kinase) [µM] | EC50 [2, 3] [µM] | inhibition at 10 µM (IL-6) [%] | inhibition at 10 µM [2, 4] [%] | inhibition at 10 µM [1] [%] | inhibition at 10 µM [2, 5] [%]
1 | Cc1nnc(-c2ccc3cnc(NC(=O)[C@H]4CC[C@H](N(C)C)CC4)cc3c2)s1 [Compound 22, trans-4-(Dimethylamino)-N-(6-(5-methyl-1,3,4-thiadiazol-2-yl)isoquinolin-3-yl)cyclohexane-1-carboxamide] | 6.66 | 0.602 | 0.005 | 2.05 | – | – | – | –
2 | Cc1cn2c(n1)CN(C(=O)Nc1cc3cc(-c4nnc(C)s4)ccc3cn1)CC2 [Compound 58, 2-Methyl-N-(6-(5-methyl-1,3,4-thiadiazol-2-yl)isoquinolin-3-yl)-5,6-dihydroimidazo[1,2-a]pyrazine-7(8H)-carboxamide] | 9.57 | 0.788 | 0.006 | 0.547 | – | – | – | –
3 | CN1CC2CCC(C1)N2C(=O)Nc1cc2cc(-c3cnn(C)c3)ccc2cn1 [Compound 61, 3-Methyl-N-(6-(1-methyl-1H-pyrazol-4-yl)isoquinolin-3-yl)-3,8-diazabicyclo[3.2.1]octane-8-carboxamide] | > 10 | 2.77 | 0.007 | > 10 | 5.2 | 13.1 | – | –
4 | C[C@@H]1CN(C(=O)Nc2cc3cc(-c4cnn(C)c4)ccc3cn2)CCN1C [Compound 67, (R)-3,4-Dimethyl-N-(6-(1-methyl-1H-pyrazol-4-yl)isoquinolin-3-yl) piperazine-1-carboxamide] | > 10 | > 10 | 0.007 | 3.99 | 29.6 | – | 5.2 | –
5 | COCCN[C@H]1CC[C@H](C(=O)Nc2cc3cc(-c4cnc(C)o4)ccc3cn2)CC1 [Compound 106, trans-4-((2-Methoxyethyl)amino)-N-(6-(2-methyloxazol-5-yl)isoquinolin-3-yl)cyclohexane-1-carboxamide] | 1.11 | 0.707 | 0.017 | 2.96 | – | – | – | –
6 | Cc1nnc(-c2ccc3cnc(NC(=O)N4C5CCC4CN(C)C5)cc3c2)s1 [Compound 108, 3-Methyl-N-(6-(5-methyl-1,3,4-thiadiazol-2-yl)isoquinolin-3-yl)-3,8-diazabicyclo[3.2.1]octane-8-carboxamide] | > 10 | > 10 | 0.01 | > 10 | 4.1 | 7.8 | 18.2 | –
7 | Cc1nnc(-c2ccc3cnc(NC(=O)N4[C@@H]5CC[C@H]4C[C@H](NCCC(F)(F)F)C5)cc3c2)s1 [Compound 153, (1R,5S)-N-(6-(5-Methyl-1,3,4-thiadiazol-2-yl)isoquinolin-3-yl)-3-exo-((3,3,3-trifluoropropyl)amino)-8-azabicyclo[3.2.1]octane-8-carboxamide] | > 10 | > 10 | 0.028 | > 10 | 9 | 0 | 9 | –
8 | Cc1ncc(-c2ccc3cnc(NC(=O)[C@H]4CC[C@H](NCCF)CC4)cc3c2)o1 [Compound 155, trans-4-((2-fluoroethyl)amino)-N-(6-(2-methyloxazol-5-yl)isoquinolin-3-yl) cyclohexane-1-carboxamide] | 1.06 | 1.06 | 0.008 | 0.807 | – | – | – | –
9 | Cc1nnc(-c2ccc3cnc(NC(=O)N4[C@@H]5CC[C@H]4C[C@@H](NCCC(F)(F)F)C5)cc3c2)s1 [Compound 195, (1R,5S)-cis-N-(6-(5-methyl-1,3,4-thiadiazol-2-yl)isoquinolin-3-yl)-3-((3,3,3-trifluoropropyl)amino)-8-azabicyclo[3.2.1]octane-8-carboxamide] | > 10 | > 10 | 0.005 | > 10 | 23.4 | 13 | 23.4 | –
10 | COCCN[C@H]1CC[C@H](C(=O)Nc2cc3cc(-c4cnn(C)c4)ccc3cn2)CC1 [Compound 196, trans-4-((2-Methoxyethyl)amino)-N-(6-(1-methyl-1H-pyrazol-4-yl)isoquinolin-3-yl)cyclohexane-1-carboxamide] | 1.21 | 0.184 | 0.006 | 6.11 | – | – | – | –
11 | Cc1nnc(-c2cc(F)c3cnc(NC(=O)N(C)C4CCN(C)CC4)cc3c2)s1 [Compound 227, 3-(8-Fluoro-6-(5-methyl-1,3,4-thiadiazol-2-yl)isoquinolin-3-yl)-1-methyl-1-(1-methylpiperidin-4-yl)urea] | > 10 | – | 0.024 | > 10 | 4.9 | – | – | 1.9
12 | CN1CCC(N(C)C(=O)Nc2cc3cc(-c4cn(C)nn4)cc(F)c3cn2)CC1 [Compound 228, 3-(8-Fluoro-6-(1-methyl-1H-1,2,3-triazol-4-yl)isoquinolin-3-yl)-1-methyl-1-(1-methylpiperidin-4-yl)urea] | > 10 | 9.98 | 0.012 | > 10 | 3.3 | – | – | –
13 | CN1CCC(N(C)C(=O)Nc2cc3cc(-c4cnn(C)c4)cc(F)c3cn2)CC1 [Compound 230, 3-(8-Fluoro-6-(1-methyl-1H-pyrazol-4-yl)isoquinolin-3-yl)-1-methyl-1-(1-methylpiperidin-4-yl)urea] | > 10 | 6.33 | 0.021 | > 10 | 36.6 | – | – | 31.9
14 | Cc1ncc(-c2ccc3cnc(NC(=O)N(C)C4CCN(C)CC4)cc3c2)o1 [Compound 231, 1-Methyl-3-(6-(2-methyloxazol-5-yl)isoquinolin-3-yl)-1-(1-methylpiperidin-4-yl)urea] | 8.28 | 2.95 | 0.016 | > 10 | – | – | – | 41.6

— patent US10604514B2, “6-(5-membered heteroaryl)isoquinolin-3-yl carboxamides and preparation and use thereof” (Samumed, LLC, priority 2017, dated 2020)
